Key:
tumor = conditions: previous experiments, Cancer Res., 64:4870 [2004]; cited from earlier work
[1] = system: non-small cell lung cancer cell line (A549); test: In vivo inhibition of tumor growth, A549 xenograft; parameters: species or system human tumor cells in nude mice; conditions: for Starting volume: at start
Procedure: Cells from a non-small cell lung cancer cell line (A549) were grown in nine T175 flasks in F12K media and 10% fetal calf serum until the cells were confluent. 4.5×10^6 cells (in 100 microliters) were injected into the right rear flank of 4-5 week old male homozygous (nu/nu) nude mice (Harlan, Madison Wis.). Tumors were allowed to grow to an average size of ≧75 mm^3 before treatments were initiated. Animals of each tumor type, with the properly sized tumors, were divided into treatment groups, including one set of animals treated weekly with vehicle (phosphate buffered saline, PBS). The vehicle and the test agents were all administered by intraperitoneal injection. Each animal was weighed twice a week during treatment. The tumors were measured twice weekly using calipers. Tumor volume (mm^3) was determined by using the formula for an ellipsoid sphere:
[formula] The efficacy of wild type human RNase 1 is shown relative to cisplatin. The RNase 1 was administered at 75 mg per kg of body weight of the animal once a week (75 mg/kg 1×wk), while the cisplatin was used at 6 mg/kg once a week. The value of n represents the number of animals in the specific treatment arm of the experiment.
The percent tumor growth inhibition (% TGI) is calculated by: […]
The xenograft model of this example was set up with the human non-small cell lung cancer cell line (A549) as in the previous examples. The efficacy of wild type human RNase 1 is shown relative to tarceva. The RNase 1 was administered at 75 mg per kg of body weight of the animal (75 mg/kg 1×wk) or 150 mg/kg 1×wk. Tarceva was given orally with doses of 50 mg/kg twice a week. The value of n represents the number of animals in the specific treatment arm of the experiment.

[2] = Example 3, Table 7, i.p., RNase 1 75 mg/kg 1×wk, cisplatin 6 mg/kg once a week
[3] = Example 6, Table 10, 75 mg/kg 1×wk
[4] = Example 6, Table 10, 150 mg/kg 1×wk

Substance: Wild type human RNase 1: wild type human ribonuclease 1 (human pancreatic RNase), SEQ ID NO:1
- reduction in tumor volume (tumor): did not demonstrate a reduction in tumor volume
- % TGI [1, 2]: 51%
- (Final − start) [1, 2]: 149 mm^3
- (Final − start)/Control [1, 2]: 0.49
- Final volume [1, 2]: 217 mm^3
- Starting volume [1, 2]: 68 mm^3
- % TGI [1, 3]: 63%
- (Final − start) [1, 3]: 300 mm^3
- (Final − start)/Control [1, 3]: 0.37
- Final volume [1, 3]: 378 mm^3
- Starting volume [1, 3]: 78 mm^3
- % TGI [1, 4]: 66%
- (Final − start) [1, 4]: 276 mm^3
- (Final − start)/Control [1, 4]: 0.34
- Final volume [1, 4]: 355 mm^3
- Starting volume [1, 4]: 79 mm^3
